Results published in patent US20240208992A1, “MACROCYCLES AS CFTR MODULATORS” (Idorsia Pharmaceuticals Ltd, priority 2021, published 2024).

Target: human F508del-CFTR (Homo sapiens, UniProt P13569, DEL508-508)
Test: F508del-CFTR cell surface expression (corrector activity), DiscoveRx ß-galactosidase complementation chemiluminescence assay in recombinant U2OS cell line;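 note: U2OS cells co-expressing ProLink-tagged F508del-CFTR and a membrane-anchored enzyme acceptor, where more surface CFTR restores β-galactosidase activity measured by chemiluminescence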
Conditions: for EC50: EC50, F508del-CFTR cell surface expression, U2OS cells, 16h compound incubation, geomean values; for Emax: U2OS, in relation to Emax of corrector lumacaftor (=100%), arithmetic mean values

human F508del-CFTR, sequence (P13569 with tags, fused parts or gaps DEL508-508): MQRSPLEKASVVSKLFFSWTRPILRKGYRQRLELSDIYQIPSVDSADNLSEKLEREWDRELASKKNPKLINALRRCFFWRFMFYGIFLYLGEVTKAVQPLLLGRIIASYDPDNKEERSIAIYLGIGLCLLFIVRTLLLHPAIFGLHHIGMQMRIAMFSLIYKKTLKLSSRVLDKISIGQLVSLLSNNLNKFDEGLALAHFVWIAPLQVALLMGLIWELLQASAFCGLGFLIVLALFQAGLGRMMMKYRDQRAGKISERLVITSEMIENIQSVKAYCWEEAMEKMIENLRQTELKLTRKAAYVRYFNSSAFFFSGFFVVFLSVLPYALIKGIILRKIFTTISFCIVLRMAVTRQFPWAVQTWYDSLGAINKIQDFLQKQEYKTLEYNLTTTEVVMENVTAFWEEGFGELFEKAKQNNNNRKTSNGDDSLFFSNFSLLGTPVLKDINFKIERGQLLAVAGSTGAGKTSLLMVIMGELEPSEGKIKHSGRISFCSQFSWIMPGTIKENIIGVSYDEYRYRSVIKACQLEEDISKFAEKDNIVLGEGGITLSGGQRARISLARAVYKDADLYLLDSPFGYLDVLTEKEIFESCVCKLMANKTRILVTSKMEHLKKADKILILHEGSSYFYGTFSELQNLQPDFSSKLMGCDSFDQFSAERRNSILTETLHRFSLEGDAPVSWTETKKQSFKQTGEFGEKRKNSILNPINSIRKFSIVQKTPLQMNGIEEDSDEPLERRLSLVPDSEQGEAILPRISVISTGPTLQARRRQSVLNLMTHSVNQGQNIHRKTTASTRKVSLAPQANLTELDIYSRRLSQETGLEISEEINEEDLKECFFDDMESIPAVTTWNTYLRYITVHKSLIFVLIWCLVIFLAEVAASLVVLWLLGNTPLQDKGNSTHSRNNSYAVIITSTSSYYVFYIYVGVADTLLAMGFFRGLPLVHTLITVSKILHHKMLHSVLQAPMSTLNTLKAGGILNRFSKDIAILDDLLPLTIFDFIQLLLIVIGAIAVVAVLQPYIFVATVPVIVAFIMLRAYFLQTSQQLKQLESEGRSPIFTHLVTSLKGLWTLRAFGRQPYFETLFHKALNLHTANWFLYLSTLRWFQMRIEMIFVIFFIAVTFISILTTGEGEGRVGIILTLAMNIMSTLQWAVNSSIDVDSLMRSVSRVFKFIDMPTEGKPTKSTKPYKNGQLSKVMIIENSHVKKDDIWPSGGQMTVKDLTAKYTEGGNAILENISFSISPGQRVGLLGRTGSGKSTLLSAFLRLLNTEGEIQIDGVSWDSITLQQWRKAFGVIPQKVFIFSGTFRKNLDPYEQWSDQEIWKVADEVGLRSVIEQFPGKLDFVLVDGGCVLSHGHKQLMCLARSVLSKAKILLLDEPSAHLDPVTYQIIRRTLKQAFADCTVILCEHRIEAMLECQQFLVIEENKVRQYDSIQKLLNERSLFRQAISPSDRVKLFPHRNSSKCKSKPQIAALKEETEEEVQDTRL

COc1cccc(CCNC(=O)[C@@H]2CC(=O)N(C)[C@@H](CC(C)C)C(=O)N3CCN(c4ccccc4)C[C@H]3C(=O)N[C@H](Cc3ccccc3)COc3ccnc(OC)c3C(=O)N2)c1 [Example 549, (7S,11S,20R,22aS)-20-benzyl-7-isobutyl-14-methoxy-N-(3-methoxyphenethyl)-8-methyl-6,9,13,22-tetraoxo-2-phenyl-1,3,4,6,7,8,9,10,11,12,13,19,20,21,22,22a-hexadecahydro-2H-pyrazino[2,1-f]pyrido[3,4-p][1]oxa[4,7,10,14]tetraazacycloheptadecine-11-carboxamide]
EC50: 166 nM
Emax: 167%

COc1nccc2c1C(=O)N[C@H](C(=O)NCCc1cc(C)no1)CC(=O)N(C)[C@@H](CC(C)C)C(=O)N1CCN(c3ccccc3)C[C@H]1C(=O)N[C@H](Cc1ccccc1)CO2 [Example 550, (7S,11S,20R,22aS)-20-benzyl-7-isobutyl-14-methoxy-8-methyl-N-(2-(3-methylisoxazol-5-yl)ethyl)-6,9,13,22-tetraoxo-2-phenyl-1,3,4,6,7,8,9,10,11,12,13,19,20,21,22,22a-hexadecahydro-2H-pyrazino[2,1-f]pyrido[3,4-p][1]oxa[4,7,10,14]tetraazacycloheptadecine-11-carboxamide]
EC50: 687 nM
Emax: 129%

COc1cccc(CCNC(=O)[C@@H]2CC(=O)N(C)[C@@H](CC(C)C)C(=O)N(C)C3(CC3)C(=O)N[C@H](Cc3ccccc3)COc3ccc4cc(C)oc4c3C(=O)N2)c1 [Example 551, (8R,14S,18S)-8-benzyl-14-isobutyl-N-(3-methoxyphenethyl)-2,12,15-trimethyl-10,13,16,20-tetraoxo-7,8,9,10,13,14,15,16,17,18,19,20-dodecahydro-12H-spiro[benzofuro[7,6-p][1]oxa[4,7,10,14]tetraazacycloheptadecine-11,1′-cyclopropane]-18-carboxamide]
EC50: 222 nM
Emax: 317%

Cc1cc2ccc3c(c2o1)C(=O)N[C@H](C(=O)NCCc1cc(C2CC2)no1)CC(=O)N(C)[C@@H](CC(C)C)C(=O)N(C)C1(CC1)C(=O)N[C@H](Cc1ccccc1)CO3 [Example 552, (8R,14S,18S)-8-benzyl-N-(2-(3-cyclopropylisoxazol-5-yl)ethyl)-14-isobutyl-2,12,15-trimethyl-10,13,16,20-tetraoxo-7,8,9,10,13,14,15,16,17,18,19,20-dodecahydro-12H-spiro[benzofuro[7,6-p][1]oxa[4,7,10,14]tetraazacycloheptadecine-11,1′-cyclopropane]-18-carboxamide]
EC50: 413 nM
Emax: 358%

Cc1cc2ccc3c(c2o1)C(=O)N[C@H](C(=O)NCCc1noc(C2CC2)n1)CC(=O)N(C)[C@@H](CC(C)C)C(=O)N(C)C1(CC1)C(=O)N[C@H](Cc1ccccc1)CO3 [Example 553, (8R,14S,18S)-8-benzyl-N-(2-(5-cyclopropyl-1,2,4-oxadiazol-3-yl)ethyl)-14-isobutyl-2,12,15-trimethyl-10,13,16,20-tetraoxo-7,8,9,10,13,14,15,16,17,18,19,20-dodecahydro-12H-spiro[benzofuro[7,6-p][1]oxa[4,7,10,14]tetraazacycloheptadecine-11,1′-cyclopropane]-18-carboxamide]
EC50: 287 nM
Emax: 304%

Cc1cc2ccc3c(c2o1)C(=O)N[C@H](C(=O)NCCc1nc(C2CC2)no1)CC(=O)N(C)[C@@H](CC(C)C)C(=O)N(C)C1(CC1)C(=O)N[C@H](Cc1ccccc1)CO3 [Example 554, (8R,14S,18S)-8-benzyl-N-(2-(3-cyclopropyl-1,2,4-oxadiazol-5-yl)ethyl)-14-isobutyl-2,12,15-trimethyl-10,13,16,20-tetraoxo-7,8,9,10,13,14,15,16,17,18,19,20-dodecahydro-12H-spiro[benzofuro[7,6-p][1]oxa[4,7,10,14]tetraazacycloheptadecine-11,1′-cyclopropane]-18-carboxamide]
EC50: 324 nM
Emax: 310%

COc1cccc(CCNC(=O)[C@@H]2CC(=O)N(C)[C@@H](CC(C)C)C(=O)N(C)C3(CC3)C(=O)N[C@H](Cc3ccccc3)COc3ncc4ccccc4c3C(=O)N2)c1 [Example 555, (3′S,7′S,13′R)-13′-benzyl-7′-isobutyl-N-(3-methoxyphenethyl)-6′,9′-dimethyl-1′,5′,8′,11′-tetraoxo-2′,3′,4′,5′,6′,7′,8′,9′,11′,12′,13′,14′-dodecahydro-1′H-spiro[cyclopropane-1,10′-[1]oxa[4,7,10,14]tetraazacycloheptadecino[17,16-c]isoquinoline]-3′-carboxamide]
EC50: 219 nM
Emax: 309%

CC(C)C[C@H]1C(=O)N(C)C2(CC2)C(=O)N[C@H](Cc2ccccc2)COc2ncc3ccccc3c2C(=O)N[C@H](C(=O)NCCc2cc(C3CC3)no2)CC(=O)N1C [Example 556, (3′S,7′S,13′R)-13′-benzyl-N-(2-(3-cyclopropylisoxazol-5-yl)ethyl)-7′-isobutyl-6′,9′-dimethyl-1′,5′,8′,11′-tetraoxo-2′,3′,4′,5′,6′,7′,8′,9′,11′,12′,13′,14′-dodecahydro-1′H-spiro[cyclopropane-1,10′-[1]oxa[4,7,10,14]tetraazacycloheptadecino[17,16-c]isoquinoline]-3′-carboxamide]
EC50: 327 nM
Emax: 322%

COc1nccc2c1C(=O)N[C@H](C(=O)NCCc1noc(C3CC3)n1)CC(=O)N(C)[C@@H](CC(C)C)C(=O)N(C)[C@@H](CC1CCC(F)(F)CC1)C(=O)N[C@H](Cc1ccccc1)CO2 [Example 557, (3R,6S,9S,13S)-3-benzyl-N-(2-(5-cyclopropyl-1,2,4-oxadiazol-3-yl)ethyl)-6-((4,4-difluorocyclohexyl)methyl)-9-isobutyl-16-methoxy-7,10-dimethyl-5,8,11,15-tetraoxo-2,3,4,5,6,7,8,9,10,11,12,13,14,15-tetradecahydropyrido[3,4-p][1]oxa[4,7,10,14]tetraazacycloheptadecine-13-carboxamide]
EC50: 594 nM
Emax: 253%

COc1nccc2c1C(=O)N[C@H](C(=O)NCCc1noc(C3CC3)n1)CC(=O)N(C)[C@@H](CC(C)C)C(=O)N(C)[C@H](CC1CCC(F)(F)CC1)C(=O)N[C@H](Cc1ccccc1)CO2 [Example 558, (3R,6R,9S,13S)-3-benzyl-N-(2-(5-cyclopropyl-1,2,4-oxadiazol-3-yl)ethyl)-6-((4,4-difluorocyclohexyl)methyl)-9-isobutyl-16-methoxy-7,10-dimethyl-5,8,11,15-tetraoxo-2,3,4,5,6,7,8,9,10,11,12,13,14,15-tetradecahydropyrido[3,4-p][1]oxa[4,7,10,14]tetraazacycloheptadecine-13-carboxamide]
EC50: 167 nM
Emax: 355%

CC(C)C[C@H]1C(=O)N2CCCC[C@@H]2C(=O)N[C@H](Cc2ccccc2)COc2cnc3ccccc3c2C(=O)N[C@H](C(=O)NCCc2cc(C(F)(F)F)no2)CC(=O)N1C [Example 559, (9S,13S,19aR,22R)-22-benzyl-13-isobutyl-12-methyl-7,11,14,20-tetraoxo-N-(2-(3-(trifluoromethyl)isoxazol-5-yl)ethyl)-7,8,9,10,11,12,13,14,17,18,19,19a,20,21,22,23-hexadecahydro-16H-pyrido[2′,1′:6,7][1]oxa[4,7,10,14]tetraazacycloheptadecino[17,16-c]quinoline-9-carboxamide]
EC50: 155 nM
Emax: 236%

CC(C)C[C@H]1C(=O)N2CCCC[C@@H]2C(=O)N[C@H](Cc2ccccc2)COc2cnc3ccc(F)cc3c2C(=O)N[C@H](C(=O)NCCc2cc(C(F)(F)F)no2)CC(=O)N1C [Example 560, (9S,13S,19aR,22R)-22-benzyl-5-fluoro-13-isobutyl-12-methyl-7,11,14,20-tetraoxo-N-(2-(3-(trifluoromethyl)isoxazol-5-yl)ethyl)-7,8,9,10,11,12,13,14,17,18,19,19a,20,21,22,23-hexadecahydro-16H-pyrido[2′,1′:6,7][1]oxa[4,7,10,14]tetraazacycloheptadecino[17,16-c]quinoline-9-carboxamide]
EC50: 114 nM
Emax: 249%

Cc1cc2ccc3c(c2o1)C(=O)N[C@H](C(=O)NCCc1noc(C2CC2)n1)CC(=O)N(C)[C@@H](CC(C)C)C(=O)N(C)CC(=O)N[C@H](Cc1ccccc1)CO3 [Example 561, (8R,14S,18S)-8-benzyl-N-(2-(5-cyclopropyl-1,2,4-oxadiazol-3-yl)ethyl)-14-isobutyl-2,12,15-trimethyl-10,13,16,20-tetraoxo-7,8,9,10,11,12,13,14,15,16,17,18,19,20-tetradecahydrobenzofuro[7,6-p][1]oxa[4,7,10,14]tetraazacycloheptadecine-18-carboxamide]
EC50: 437 nM
Emax: 215%

Cc1cc2ccc3c(c2o1)C(=O)N[C@H](C(=O)NCCc1nc(C2CC2)no1)CC(=O)N(C)[C@@H](CC(C)C)C(=O)N(C)CC(=O)N[C@H](Cc1ccccc1)CO3 [Example 562, (8R,14S,18S)-8-benzyl-N-(2-(3-cyclopropyl-1,2,4-oxadiazol-5-yl)ethyl)-14-isobutyl-2,12,15-trimethyl-10,13,16,20-tetraoxo-7,8,9,10,11,12,13,14,15,16,17,18,19,20-tetradecahydrobenzofuro[7,6-p][1]oxa[4,7,10,14]tetraazacycloheptadecine-18-carboxamide]
EC50: 444 nM
Emax: 282%

CC(C)C[C@H]1C(=O)N2CCCC[C@@H]2C(=O)N[C@H](Cc2ccccc2)COc2cnc3cccc(F)c3c2C(=O)N[C@H](C(=O)NCCc2noc(C3CC3)n2)CC(=O)N1C [Example 563, (9S,13S,19aR,22R)-22-benzyl-N-(2-(5-cyclopropyl-1,2,4-oxadiazol-3-yl)ethyl)-6-fluoro-13-isobutyl-12-methyl-7,11,14,20-tetraoxo-7,8,9,10,11,12,13,14,17,18,19,19a,20,21,22,23-hexadecahydro-16H-pyrido[2′,11:6,7][1]oxa[4,7,10,14]tetraazacycloheptadecino[17,16-c]quinoline-9-carboxamide]
EC50: 125 nM
Emax: 330%
